Here are results for 15 compounds from patent publication US10195156B2, “Compounds and compositions for intracellular delivery of agents” (ModernaTX, Inc., priority 2015, dated 2019).

Data set [1] can be described thus: Particle size and polydispersity index of nanoparticle compositions (Zetasizer Nano ZS). The data set is classed as physicochemical. An outline of the steps: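 Nanoparticle compositions are diluted in 1×PBS, then size and polydispersity index are read on a Zetasizer Nano ZS instrument.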
Data set [2] is described as follows: Encapsulation efficiency of RNA (QUANT-IT RIBOGREEN RNA assay). The data set is classed as physicochemical. The method in brief: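 Nanoparticle samples diluted to ~5 μg/mL RNA in TE buffer (pH 7.5), incubated with or without 2% Triton X-100 solution at 37 °C for 15 min, then RiboGreen added. Fluorescence read at ~480/520 nm, blank-subtracted; free RNA % = intact over Triton-disrupted signal.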

Data set [3] in a line: pKa of nanoparticle compositions. It counts as physicochemical. As to conditions: Table 1; rows without footnote mark.
Another data set deals with LDL-c. Put plainly: LDL levels in LDLr−/− mice after mRNA encoding the LDL receptor. It counts as in vivo, LDLR knockout mice. As to conditions: Mus musculus; Table 7b; LDLr−/− mice, 0.5 mpk, LDLr; read-out: LDL levels lipid/untreated LDLr−/− mice 0.5 mpk, LDLr.
In the next data set the test system is Luc expression. Put plainly: Luc expression in CD-1 mice (AUC relative to MC3). The following applies: Table 7c. The data set is classed as in vivo. How it is done:
FIG. 15 is a graph summarizing luciferase expression levels at 6 h after administration of nanoparticle compositions containing compounds of the disclosure to CD-1 mice at a dose of 0.5 mpk. Total light flux values were acquired via body luminescent imaging (BLI) 6 h after administration. In this Figure, the numbers 1-7 and 10 refer to the compositions containing Compounds 4-10 and MC3 respectively.
(§1) In contrast, hEPO expression in rats induced by administration of a nanoparticle composition including a compound according to one of formulae (I), (Ia1)-(Ia6), (Ib), (II), (IIa), (III), and (IIIa) was substantially […] than that measured for MC3. […] Table 7c and 7d show additional protein expressions and clearance data from compositions with various compounds disclosed herein as compared to with MC3.

A short description of data set [4]: Lipid clearance: % dose remaining in mouse liver 6 h and 24 h after administration of nanoparticle compositions. It counts as in vivo, CD-1 mice. The following applies: Table 7c.
Excerpt: as §1

[5] abbreviates: Table 1, rows without footnote mark.
Where [6] appears, read: Table 1, rows without footnote mark (lipid:DOPE:cholesterol:PEG-DMG 40:20:38.5:1.5, Luc mRNA; MC3 standard formulation).

Regarding `CCCCCCCCCCCCN(CCN(CCCCCCCCC)CCCCCCCCC)CC(=O)N1CCN(C(=O)CN(CCCCCCCCC)CCCCCCCCC)CC1` [Compound 5, 2-(Dinonylamino)-1-(4-(N-(2-(dinonylamino)ethyl)-N-dodecylglycyl)piperazin-1-yl)ethan-1-one], in data set [1] (setting [5]), the PDI was determined as 0.140. Also, the “Size (nm)” value in data set [1] (setting [6]) is 85.1 nm. Moreover, the “EE (%)” value in data set [2] (setting [5]) amounted to 98.1%. The pKa in data set [3] was determined as 7.01. The response vs control in vivo at 0.5 mg/kg in the data set on LDL-c is 47%.
In data set [1] (setting [5]), `CCCCCCCCCCCCN(CCCCCCCCCCCC)CCN(CCCCCCCCC)CC(=O)N1CCN(C(=O)CN(CCCCCCCCC)CCCCCCCCC)CC1` [Compound 6, 2-((2-(Didodecylamino)ethyl)(nonyl)amino)-1-(4-(dinonylglycyl)piperazin-1-yl)ethan-1-one] gave a PDI of 0.160. In data set [1] (setting [6]), the “Size (nm)” value came to 81.4 nm. Besides, the “EE (%)” value in data set [2] (setting [5]) is listed as 98.9%. The compound also yielded a pKa in data set [3] of 6.62. In addition, the response vs control in vivo at 0.5 mg/kg in the data set with LDL-c was 91%.
As for `CCCCCCCCCCCCN(CCCCCCCCCCCC)CCN(CCCCCCCCCCCC)CC(=O)N1CCN(C(=O)CN(CCCCCCCCC)CCCCCCCCC)CC1` [Compound 7, 2-((2-(Didodecylamino)ethyl)(dodecyl)amino)-1-(4-(dinonylglycyl)piperazin-1-yl)ethan-1-one], the PDI in data set [1] (setting [5]) was determined as 0.130. In data set [1] (setting [6]), the “Size (nm)” value worked out at 85.1 nm. For the same compound, the “EE (%)” value in data set [2] (setting [5]) is 99.1%. Moreover, the pKa in data set [3] is on record as 6.94. Further, in the data set on LDL-c, the response vs control in vivo at 0.5 mg/kg is 63%.
Compound `CCCCCCCCCCCCN(CCCCCCCCCCCC)CC(=O)N1CCN(C(=O)CN(CCCCCCCCC)CCN(CCCCCCCCC)CCCCCCCCC)CC1` [Compound 8, 2-(Didodecylamino)-1-(4-(N-(2-(dinonylamino)ethyl)-N-nonylglycyl)piperazin-1-yl)ethan-1-one] registered a PDI in data set [1] (setting [5]) of 0.110. Moreover, the “Size (nm)” value in data set [1] (setting [6]) was 83.3 nm. The “EE (%)” value in data set [2] (setting [5]) turned out to be 98.5%. Besides, in data set [3], the pKa amounted to 6.87. For the same compound, the response vs control in vivo at 0.5 mg/kg with LDL-c amounted to 66%.
In the case of `CCCCCCCCCN(CCCCCCCCC)CCN(CCCCCCCCC)CC(=O)N1CCN(C(=O)CN(CCCCCCCCC)CCCCCCC(=O)OCC)CC1` [Compound 53, Ethyl 7-((2-(4-(N-(2-(dinonylamino)ethyl)-N-nonylglycyl)piperazin-1-yl)-2-oxoethyl)(nonyl)amino)heptanoate], in data set [1] (Table 1b), the PDI is recorded as 0.23 and the “Size (nm)” value is recorded as 103.0 nm. In addition, the “EE (%)” value in data set [2] (Table 1b) was found to be 82.8%. Besides, the “AUC (p/s*h)” value in the data set on Luc expression turned out to be 9.22E+09 p/s*h. Besides, in data set [4], the “% Dose Remaining 6 hr” value turned out to be 1.35% and the “% Dose Remaining 24 hr” value stood at 0.77%.
Consider `CCCCCCCCCN(CCCCCCCCC)CCN(CCCCCCCCC)CC(=O)N1CCN(C(=O)CN(CCCCCCCCC)CCCCCC(=O)OCCC)CC1` [Compound 54, Propyl 6-((2-(4-(N-(2-(dinonylamino)ethyl)-N-nonylglycyl)piperazin-1-yl)-2-oxoethyl)(nonyl)amino)hexanoate], for which, in data set [1] (Table 1b), the PDI came out at 0.23 and the “Size (nm)” value came out at 93.0 nm. Also, the “EE (%)” value in data set [2] (Table 1b) was determined as 96.9%. The “AUC (p/s*h)” value in the data set with Luc expression is listed as 1.89E+10 p/s*h. Besides, in data set [4], the “% Dose Remaining 6 hr” value is 5.18% and the “% Dose Remaining 24 hr” value was found to be 4.77%.
With `CCCCCCCCCN(CCCCCCCCC)CCN(CCCCCCCCC)CC(=O)N1CCN(C(=O)CN(CCCCCCCCC)CCCCC(=O)OCCCC)CC1` [Compound 55, Butyl 5-((2-(4-(N-(2-(dinonylamino)ethyl)-N-nonylglycyl)piperazin-1-yl)-2-oxoethyl)(nonyl)amino)pentanoate], in data set [1] (Table 1b), the PDI was 0.23 and the “Size (nm)” value is 119.5 nm. The “EE (%)” value in data set [2] (Table 1b) is listed as 95.2%. Besides, the “AUC (p/s*h)” value with Luc expression worked out at 2.00E+10 p/s*h. In data set [4], the “% Dose Remaining 6 hr” value turned out to be 2.58% and the “% Dose Remaining 24 hr” value stood at 1.60%.
For `CCCCCCCCCN(CCCCCCCCC)CCN(CCCCCCCCC)CC(=O)N1CCN(C(=O)CN(CCCCCCCCC)CCCOC(=O)CCCCC)CC1` [Compound 56, 3-((2-(4-(N-(2-(Dinonylamino)ethyl)-N-nonylglycyl)piperazin-1-yl)-2-oxoethyl)(nonyl)amino)propyl Hexanoate], in data set [1] (Table 1b), the PDI was 0.24 and the “Size (nm)” value came to 117.4 nm. In addition, the “EE (%)” value in data set [2] (Table 1b) came to 99.0%. For the same compound, the “AUC (p/s*h)” value in the data set with Luc expression is listed as 1.77E+11 p/s*h. In addition, in data set [4], the “% Dose Remaining 6 hr” value came out at 1.21% and the “% Dose Remaining 24 hr” value is 0.16%.
In the case of `CCCCCCCCCN(CCCCCCCC(=O)OC)CCC1CCN(C(=O)CN(CCCCCCCCC)CCN(CCCCCCCCC)CCCCCCCCC)CC1` [Compound 57, Methyl 8-((2-(1-(N-(2-(dinonylamino)ethyl)-N-nonylglycyl)piperidin-4-yl)ethyl)(nonyl)amino)octanoate], in data set [1] (Table 1b), the PDI is on record as 0.23 and the “Size (nm)” value was determined as 101.9 nm. Besides, the “EE (%)” value in data set [2] (Table 1b) amounted to 98.8%. Besides, the “AUC (p/s*h)” value with Luc expression was determined as 1.21E+11 p/s*h. In addition, in data set [4], the “% Dose Remaining 6 hr” value worked out at 0.88% and the “% Dose Remaining 24 hr” value is reported as 0.24%.
As to `CCCCCCCCCN(CCCCCCC(=O)OCC)CCC1CCN(C(=O)CN(CCCCCCCCC)CCN(CCCCCCCCC)CCCCCCCCC)CC1` [Compound 58, Ethyl 7-((2-(1-(N-(2-(dinonylamino)ethyl)-N-nonylglycyl)piperidin-4-yl)ethyl)(nonyl)amino)heptanoate], in data set [1] (Table 1b), the PDI amounted to 0.23 and the “Size (nm)” value came out at 112.8 nm. For the same compound, in data set [2] (Table 1b), the “EE (%)” value is given as 98.9%. Further, the “AUC (p/s*h)” value in the data set with Luc expression is 1.38E+11 p/s*h. Besides, in data set [4], the “% Dose Remaining 6 hr” value was 1.37% and the “% Dose Remaining 24 hr” value was determined as 0.61%.
Regarding `CCCCCCCCCN(CCCCCC(=O)OCCC)CCC1CCN(C(=O)CN(CCCCCCCCC)CCN(CCCCCCCCC)CCCCCCCCC)CC1` [Compound 59, Propyl 6-((2-(1-(N-(2-(dinonylamino)ethyl)-N-nonylglycyl)piperidin-4-yl)ethyl)(nonyl)amino)hexanoate], in data set [1] (Table 1b), the PDI amounted to 0.23 and the “Size (nm)” value came to 104.7 nm. The “EE (%)” value in data set [2] (Table 1b) came to 98.6%. In the data set on Luc expression, the “AUC (p/s*h)” value is 1.19E+11 p/s*h. In addition, in data set [4], the “% Dose Remaining 6 hr” value stood at 6.99% and the “% Dose Remaining 24 hr” value was determined as 5.03%.
With `CCCCCCCCCN(CCCCC(=O)OCCCC)CCC1CCN(C(=O)CN(CCCCCCCCC)CCN(CCCCCCCCC)CCCCCCCCC)CC1` [Compound 60, Butyl 5-((2-(1-(N-(2-(dinonylamino)ethyl)-N-nonylglycyl)piperidin-4-yl)ethyl)(nonyl)amino)pentanoate], in data set [1] (Table 1b), the PDI is 0.23 and the “Size (nm)” value came out at 105.7 nm. Besides, the “EE (%)” value in data set [2] (Table 1b) was found to be 98.8%. Besides, in the data set on Luc expression, the “AUC (p/s*h)” value stood at 2.84E+11 p/s*h. Besides, in data set [4], the “% Dose Remaining 6 hr” value was 21.18% and the “% Dose Remaining 24 hr” value turned out to be 15.98%.
As to `CCCCCCCCCN(CCCOC(=O)CCCCC)CCC1CCN(C(=O)CN(CCCCCCCCC)CCN(CCCCCCCCC)CCCCCCCCC)CC1` [Compound 61, 3-((2-(1-(N-(2-(Dinonylamino)ethyl)-N-nonylglycyl)piperidin-4-yl)ethyl)(nonyl)amino)propyl hexanoate], in data set [1] (Table 1b), the PDI stood at 0.23 and the “Size (nm)” value turned out to be 86.8 nm. Moreover, in data set [2] (Table 1b), the “EE (%)” value was 99.1%. For the same compound, the “AUC (p/s*h)” value in the data set on Luc expression came to 4.65E+11 p/s*h. Besides, in data set [4], the “% Dose Remaining 6 hr” value came out at 1.31% and the “% Dose Remaining 24 hr” value is 0.13%.
Take `CCCCCCCCCN(CCCC(=O)OCCCCC)CCN(CCCCCCCCC)CC(=O)N1CCN(C(=O)CN(CCCCCCCCC)CCCC(=O)OCCCCC)CC1` [Compound 71, Pentyl 4-(nonyl(2-(4-(N-nonyl-N-(2-(nonyl(4-oxo-4-(pentyloxy)butyl)amino)ethyl)glycyl)piperazin-1-yl)-2-oxoethyl)amino)butanoate]: in data set [1] (Table 1b), the PDI is 0.18 and the “Size (nm)” value is 99.9 nm. For the same compound, the “EE (%)” value in data set [2] (Table 1b) came out at 91.0%. Besides, the “AUC (p/s*h)” value in the data set on Luc expression worked out at 1.77E+11 p/s*h. Besides, in data set [4], the “% Dose Remaining 6 hr” value was 12.39% and the “% Dose Remaining 24 hr” value stood at 9.25%.
As for `CCCCCCCCCN(CCCCCCCCC)CCN(CCCCCCCCC)CC(=O)N1CCN(C(=O)CN(CCCC(=O)OCCCCC)CCCC(=O)OCCCCC)CC1` [Compound 72, Dipentyl 4,4′-((2-(4-(N-(2-(dinonylamino)ethyl)-N-nonylglycyl)piperazin-1-yl)-2-oxoethyl)azanediyl)dibutyrate], in data set [1] (Table 1b), the PDI is 0.22 and the “Size (nm)” value is given as 102.5 nm. In addition, in data set [2] (Table 1b), the “EE (%)” value is given as 92.7%. For the same compound, in the data set on Luc expression, the “AUC (p/s*h)” value came to 6.53E+10 p/s*h. Moreover, in data set [4], the “% Dose Remaining 6 hr” value worked out at 7.06% and the “% Dose Remaining 24 hr” value came to 6.40%.

By pKa is commonly meant the pH at which an ionisable group is half protonated.
